Reference: patent US10294202B2, “Pyrrolidinones as herbicides” (FMC Corporation, priority 2013, dated 2019)

How the values were obtained:
barnyardgrass [1] = test: Test A pre-/postemergence herbicide test; format: in vivo, Echinochloa crus-galli
How it was run: (§1)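 Scoring was visual, relative to untreated controls, on a 0–100 scale after about 10 greenhouse days. Preemergence treatment used a directed soil spray over seeded loam/sand; postemergence treatment targeted one- to two-leaf plants of 2–10 cm.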

pigweed = test: Test A pre-/postemergence herbicide test; format: in vivo, Amaranthus retroflexus
How it was run: as §1

rice = test: Test B flooded paddy test; format: in vivo, Oryza sativa; conditions: Flood, scale of 0 to 100 where 0 is no effect and 100 is complete control
How it was run: (§2)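 2-leaf plants; flood 3 cm over soil; compound into paddy water; depth held. Greenhouse 13–15 d. Visual rating vs controls, 0 (no effect) to 100 (complete control); dash = not tested.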

ducksalad = test: Test B flooded paddy test; format: in vivo, Heteranthera limosa; conditions: Flood, scale of 0 to 100 where 0 is no effect and 100 is complete control
How it was run: as §2

barnyardgrass [2] = test: Test B flooded paddy test; format: in vivo, Echinochloa crus-galli; conditions: Flood, scale of 0 to 100 where 0 is no effect and 100 is complete control
How it was run: as §2

ryegrass, Italian = test: Test C pre-/postemergence herbicide test; format: in vivo, Lolium multiflorum; conditions: for Ryegrass, Italian plant response rating: scale 0 to 100, 0 is no effect and 100 is complete control
How it was run: (§3)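 Response scores range from 0, meaning no effect, to 100, meaning complete control, assigned visually by comparison with controls roughly two weeks (13 to 15 days) after spraying. Applications were made preemergence to seeded loam–sand soil and postemergence to 1- to 4-leaf plants.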

morningglory = test: Test C pre-/postemergence herbicide test; format: in vivo, Ipomoea coccinea; conditions: for Morningglory plant response rating: scale 0 to 100, 0 is no effect and 100 is complete control
How it was run: as §3

nutsedge, yellow = test: Test C pre-/postemergence herbicide test; format: in vivo, Cyperus esculentus; conditions: for Nutsedge, Yellow plant response rating: scale 0 to 100, 0 is no effect and 100 is complete control
How it was run: as §3

soybean = test: Test C pre-/postemergence herbicide test; format: in vivo, Glycine max; conditions: for Soybean plant response rating: scale 0 to 100, 0 is no effect and 100 is complete control
How it was run: as §3

barnyardgrass [3] = test: Test C pre-/postemergence herbicide test; format: in vivo, Echinochloa crus-galli; conditions: for Barnyardgrass plant response rating: scale 0 to 100, 0 is no effect and 100 is complete control
How it was run: as §3

waterhemp = test: Test C pre-/postemergence herbicide test; format: in vivo, Amaranthus rudis; conditions: for Waterhemp plant response rating: scale 0 to 100, 0 is no effect and 100 is complete control
How it was run: as §3

oat, wild = test: Test C pre-/postemergence herbicide test; format: in vivo, Avena fatua; conditions: Postemergence
How it was run: as §3

[4] = Postemergence, 125 g ai/ha, 0 to 100 scale, 0 no effect, 100 complete control
[5] = Postemergence, 500 g ai/ha, 0 to 100 scale (0 no effect, 100 complete control)
[6] = Preemergence, 125 g ai/ha, visual rating on 0 to 100 scale (0 no effect, 100 complete control)
[7] = preemergence, 500 g ai/ha, 0 to 100 scale (0 no effect, 100 complete control)
[8] = preemergence, 500 g ai/ha, 0 to 100 scale
[9] = Postemergence, 31 g ai/ha, scale 0 (no effect) to 100 (complete control)
[10] = Postemergence, 62 g ai/ha, scale 0 to 100 (0 no effect, 100 complete control)
[11] = Postemergence, 125 g ai/ha, scale 0 to 100 (0 no effect, 100 complete control)
[12] = Postemergence, 250 g ai/ha, scale 0 to 100 (0 no effect, 100 complete control)
[13] = Preemergence, 62 g ai/ha, scale 0 to 100
[14] = Preemergence, 125 g ai/ha, scale 0 to 100 (0 no effect, 100 complete control)
[15] = 125 g ai/ha, scale 0 to 100 (0 no effect, 100 complete control)
[16] = 250 g ai/ha, scale 0 to 100 (0 no effect, 100 complete control)
[17] = 125 g ai/ha, visual rating, 0 to 100 scale, 0 no effect, 100 complete control, approximately 10 days, preemergence
[18] = Postemergence, 31 g ai/ha, scale 0 to 100 (0 no effect, 100 complete control)
[19] = Postemergence, 62 g ai/ha, scale 0 (no effect) to 100 (complete control)

## Cc1ccccc1NC(=O)C1C(=O)NCC1c1cccc(C(F)(F)F)c1 (racemic) [Compound 109]
Barnyardgrass [1]; [4]
  Plant response rating, Barnyardgrass: 90
Barnyardgrass [1]; [5]
  Plant response rating, Barnyardgrass: 90
Barnyardgrass [1]; [6]
  Barnyardgrass plant response rating: 80
Barnyardgrass [1]; [7]
  Plant response rating, Barnyardgrass: 90
pigweed; [4]
  Plant response rating, Pigweed: 0
pigweed; [5]
  Plant response rating, Pigweed: 0
pigweed; [6]
  Pigweed plant response rating: 0
pigweed; [8]
  Plant response rating, Pigweed: 0
rice; 1000 g ai/ha
  Plant response rating, Rice: 0
ducksalad; 1000 g ai/ha
  Plant response rating, Ducksalad: 95
Barnyardgrass [2]; 1000 g ai/ha
  Plant response rating, Barnyardgrass: 0
ryegrass, Italian; [9]
  Plant response rating, Ryegrass, Italian: 0
ryegrass, Italian; [10]
  Plant response rating, Ryegrass, Italian: 0
ryegrass, Italian; [11]
  Plant response rating, Ryegrass, Italian: 0
ryegrass, Italian; [12]
  Plant response rating, Ryegrass, Italian: 0
ryegrass, Italian; Preemergence, 31 g ai/ha
  Ryegrass, Italian plant response rating: 0
ryegrass, Italian; [13]
  Plant response rating, Ryegrass, Italian: 40
ryegrass, Italian; [14]
  Plant response rating, Ryegrass, Italian: 20
ryegrass, Italian; Preemergence, 250 g ai/ha
  Plant response rating (scale of 0 to 100), Ryegrass, Italian: 70
morningglory; [9]
  Plant response rating, Morningglory: 20
morningglory; [10]
  Plant response rating, Morningglory: 0
morningglory; [11]
  Plant response rating, Morningglory: 5
morningglory; [12]
  Plant response rating, Morningglory: 15
morningglory; Preemergence, 31 g ai/ha
  Morningglory plant response rating: 0
morningglory; [13]
  Plant response rating, Morningglory: 0
morningglory; [14]
  Plant response rating, Morningglory: 5
morningglory; Preemergence, 250 g ai/ha
  Plant response rating (scale of 0 to 100), Morningglory: 30
nutsedge, yellow; [9]
  Plant response rating, Nutsedge, Yellow: 0
nutsedge, yellow; [10]
  Plant response rating, Nutsedge, Yellow: 0
nutsedge, yellow; [11]
  Plant response rating, Nutsedge, Yellow: 0
nutsedge, yellow; [12]
  Plant response rating, Nutsedge, Yellow: 0
nutsedge, yellow; Preemergence, 31 g ai/ha
  Nutsedge, Yellow plant response rating: 0
nutsedge, yellow; [13]
  Plant response rating, Nutsedge, Yellow: 5
nutsedge, yellow; [14]
  Plant response rating, Nutsedge, Yellow: 0
nutsedge, yellow; Preemergence, 250 g ai/ha
  Plant response rating (scale of 0 to 100), Nutsedge, Yellow: 5
soybean; [9]
  Plant response rating, Soybean: 0
soybean; [10]
  Plant response rating, Soybean: 0
soybean; [11]
  Plant response rating, Soybean: 5
soybean; [12]
  Plant response rating, Soybean: 5
soybean; Preemergence, 31 g ai/ha
  Soybean plant response rating: 100
soybean; [13]
  Plant response rating, Soybean: 0
soybean; [14]
  Plant response rating, Soybean: 55
soybean; Preemergence, 250 g ai/ha
  Plant response rating (scale of 0 to 100), Soybean: 0
Barnyardgrass [3]; [9]
  Plant response rating, Barnyardgrass: 0
Barnyardgrass [3]; [10]
  Plant response rating, Barnyardgrass: 0
Barnyardgrass [3]; [11]
  Plant response rating, Barnyardgrass: 0
Barnyardgrass [3]; [12]
  Plant response rating, Barnyardgrass: 45
Barnyardgrass [3]; Preemergence, 31 g ai/ha
  Barnyardgrass plant response rating: 70
Barnyardgrass [3]; [13]
  Plant response rating, Barnyardgrass: 85
Barnyardgrass [3]; [14]
  Plant response rating, Barnyardgrass: 95
Barnyardgrass [3]; Preemergence, 250 g ai/ha
  Plant response rating (scale of 0 to 100; 0 is no effect, 100 is complete control), Barnyardgrass: 98
waterhemp; [9]
  Plant response rating, Waterhemp: 0
waterhemp; [10]
  Plant response rating, Waterhemp: 0
waterhemp; [11]
  Plant response rating, Waterhemp: 0
waterhemp; [12]
  Plant response rating, Waterhemp: 0
waterhemp; Preemergence, 31 g ai/ha
  Waterhemp plant response rating: 0
waterhemp; [13]
  Plant response rating, Waterhemp: 50
waterhemp; [14]
  Plant response rating, Waterhemp: 0
waterhemp; Preemergence, 250 g ai/ha
  Plant response rating (scale of 0 to 100), Waterhemp: 20
oat, wild; 31 g ai/ha, scale 0 (no effect) to 100 (complete control)
  Plant response rating, Oat, Wild: 0
oat, wild; 62 g ai/ha, scale 0 to 100 (0 no effect, 100 complete control)
  Plant response rating, Oat, Wild: 0
oat, wild; [15]
  Plant response rating, Oat, Wild: 0
oat, wild; [16]
  Plant response rating, Oat, Wild: 0

## O=C1NCC(c2ccc(F)cc2)C1C(=O)Nc1ccc(F)c(F)c1F (racemic) [Compound 120]
Barnyardgrass [1]; [17]
  Plant response rating, Barnyardgrass: 90
Barnyardgrass [1]; [4]
  Plant response rating, Barnyardgrass: 80
Barnyardgrass [1]; [5]
  Plant response rating, Barnyardgrass: 90
Barnyardgrass [1]; [7]
  Plant response rating, Barnyardgrass: 90
pigweed; [17]
  Plant response rating, Pigweed: 30
pigweed; [4]
  Plant response rating, Pigweed: 20
pigweed; Postemergence, 500 g ai/ha
  Pigweed plant response rating (0 to 100 scale, 0 is no effect, 100 is complete control): 50
pigweed; [8]
  Plant response rating, Pigweed: 40
rice; 500 g ai/ha
  Plant response rating, Rice: 20
ducksalad; 500 g ai/ha
  Plant response rating, Ducksalad: 100
Barnyardgrass [2]; 500 g ai/ha
  Plant response rating, Barnyardgrass: 80
ryegrass, Italian; [18]
  Plant response rating, Ryegrass, Italian: 0
ryegrass, Italian; [19]
  Plant response rating, Ryegrass, Italian: 0
ryegrass, Italian; [11]
  Plant response rating, Ryegrass, Italian: 0
ryegrass, Italian; [12]
  Plant response rating, Ryegrass, Italian: 10
ryegrass, Italian; Preemergence, 31 g ai/ha
  Ryegrass, Italian plant response rating: 10
ryegrass, Italian; [13]
  Plant response rating, Ryegrass, Italian: 5
ryegrass, Italian; [14]
  Plant response rating, Ryegrass, Italian: 10
ryegrass, Italian; Preemergence, 250 g ai/ha
  Plant response rating (scale of 0 to 100), Ryegrass, Italian: 30
morningglory; [18]
  Plant response rating, Morningglory: 0
morningglory; [19]
  Plant response rating, Morningglory: 5
morningglory; [11]
  Plant response rating, Morningglory: 0
morningglory; [12]
  Plant response rating, Morningglory: 5
morningglory; Preemergence, 31 g ai/ha
  Morningglory plant response rating: 0
morningglory; [13]
  Plant response rating, Morningglory: 0
morningglory; [14]
  Plant response rating, Morningglory: 35
morningglory; Preemergence, 250 g ai/ha
  Plant response rating (scale of 0 to 100), Morningglory: 40
nutsedge, yellow; [18]
  Plant response rating, Nutsedge, Yellow: 0
nutsedge, yellow; [19]
  Plant response rating, Nutsedge, Yellow: 0
nutsedge, yellow; [11]
  Plant response rating, Nutsedge, Yellow: 0
nutsedge, yellow; [12]
  Plant response rating, Nutsedge, Yellow: 0
nutsedge, yellow; Preemergence, 31 g ai/ha
  Nutsedge, Yellow plant response rating: 0
nutsedge, yellow; [13]
  Plant response rating, Nutsedge, Yellow: 0
nutsedge, yellow; [14]
  Plant response rating, Nutsedge, Yellow: 0
nutsedge, yellow; Preemergence, 250 g ai/ha
  Plant response rating (scale of 0 to 100), Nutsedge, Yellow: 0
soybean; [18]
  Plant response rating, Soybean: 0
soybean; [19]
  Plant response rating, Soybean: 0
soybean; [11]
  Plant response rating, Soybean: 0
soybean; [12]
  Plant response rating, Soybean: 0
soybean; Preemergence, 31 g ai/ha
  Soybean plant response rating: 0
soybean; [13]
  Plant response rating, Soybean: 0
soybean; [14]
  Plant response rating, Soybean: 0
soybean; Preemergence, 250 g ai/ha
  Plant response rating (scale of 0 to 100), Soybean: 0
Barnyardgrass [3]; [18]
  Plant response rating, Barnyardgrass: 0
Barnyardgrass [3]; [19]
  Plant response rating, Barnyardgrass: 30
Barnyardgrass [3]; [11]
  Plant response rating, Barnyardgrass: 40
Barnyardgrass [3]; [12]
  Plant response rating, Barnyardgrass: 65
Barnyardgrass [3]; Preemergence, 31 g ai/ha
  Barnyardgrass plant response rating: 85
Barnyardgrass [3]; [13]
  Plant response rating, Barnyardgrass: 90
Barnyardgrass [3]; [14]
  Plant response rating, Barnyardgrass: 95
Barnyardgrass [3]; Preemergence, 250 g ai/ha
  Plant response rating (scale of 0 to 100; 0 is no effect, 100 is complete control), Barnyardgrass: 98
waterhemp; [18]
  Plant response rating, Waterhemp: 0
waterhemp; [19]
  Plant response rating, Waterhemp: 0
waterhemp; [11]
  Plant response rating, Waterhemp: 15
waterhemp; [12]
  Plant response rating, Waterhemp: 20
waterhemp; Preemergence, 31 g ai/ha
  Waterhemp plant response rating: 0
waterhemp; [13]
  Plant response rating, Waterhemp: 60
waterhemp; [14]
  Plant response rating, Waterhemp: 75
waterhemp; Preemergence, 250 g ai/ha
  Plant response rating (scale of 0 to 100), Waterhemp: 85
oat, wild; 31 g ai/ha, scale 0 to 100 (0 no effect, 100 complete control)
  Plant response rating, Oat, Wild: 0
oat, wild; 62 g ai/ha, scale 0 (no effect) to 100 (complete control)
  Plant response rating, Oat, Wild: 0
oat, wild; [15]
  Plant response rating, Oat, Wild: 0
oat, wild; [16]
  Plant response rating, Oat, Wild: 0
